Test results taken from US8829007B2 (priority 2009, dated 2014).

How the values were obtained:
[1] = tested on: A/PR/8/34 influenza virus; assay: microbe, parasite or virus in culture; assay type: cell-based; conditions: Influenza A virus, PR/8, MDCK, MDCK cells infected with A/PR/8/34, bDNA viral RNA; read-out: EC50 (mean all)
[2] = tested on: influenza A virus (A/PR/8/34); assay: microbe, parasite or virus in culture; assay type: cell-based; conditions: Influenza A virus, PR/8, MDCK, MDCK cells infected with A/PR/8/34, cell protection (CPE); read-out: IC50 (mean all)

| Structure (SMILES) | EC50 [1] [µM] | IC50 [2] [µM] |
| --- | --- | --- |
| O=C(c1cc(F)cc(F)c1)N1CCC[C@H](CNc2nc(-c3c[nH]c4ncc(Cl)cc34)ncc2F)C1 [Compound 86, (R)-(3-((2-(5-chloro-1H-pyrrolo[2,3-b]pyridin-3-yl)-5-fluoropyrimidin-4-ylamino)methyl)piperidin-1-yl)(3,5-difluorophenyl)methanone] | < 5 | < 5 |
| O=S(=O)(c1ccccc1)N1CCC[C@H](CNc2nc(-c3c[nH]c4ncc(Cl)cc34)ncc2F)C1 [Compound 87, (R)-2-(5-chloro-1H-pyrrolo[2,3-b]pyridin-3-yl)-5-fluoro-N-((1-(phenylsulfonyl)piperidin-3-yl)methyl)pyrimidin-4-amine] | < 5 | < 5 |
| O=S(=O)(c1cccs1)N1CCCC(CNc2nc(-c3c[nH]c4ncc(Cl)cc34)ncc2F)C1 (centres unmarked) [Compound 89] | < 5 | < 5 |
| O=S(=O)(c1ccccc1F)N1CCC[C@H](CNc2nc(-c3c[nH]c4ncc(Cl)cc34)ncc2F)C1 [Compound 90, (R)-2-(5-chloro-1H-pyrrolo[2,3-b]pyridin-3-yl)-5-fluoro-N-((1-(2-fluorophenylsulfonyl)piperidin-3-yl)methyl)pyrimidin-4-amine] | < 5 | < 5 |
| Cn1cnc(S(=O)(=O)N2CCC[C@H](CNc3nc(-c4c[nH]c5ncc(Cl)cc45)ncc3F)C2)c1 [Compound 91, (R)-2-(5-chloro-1H-pyrrolo[2,3-b]pyridin-3-yl)-5-fluoro-N-((1-(1-methyl-1H-imidazol-4-ylsulfonyl)piperidin-3-yl)methyl)pyrimidin-4-amine] | < 5 | < 5 |
| O=C(CCl)N1CCC[C@H](CNc2nc(-c3c[nH]c4ncc(Cl)cc34)ncc2F)C1 [Compound 92, (R)-2-chloro-1-(3-((2-(5-chloro-1H-pyrrolo[2,3-b]pyridin-3-yl)-5-fluoropyrimidin-4-ylamino)methyl)piperidin-1-yl)ethanone] | < 5 | < 5 |
| CC(Cl)C(=O)N1CCC[C@H](CNc2nc(-c3c[nH]c4ncc(Cl)cc34)ncc2F)C1 (stereo partly drawn) [Compound 93, 2-chloro-1-((R)-3-((2-(5-chloro-1H-pyrrolo[2,3-b]pyridin-3-yl)-5-fluoropyrimidin-4-ylamino)methyl)piperidin-1-yl)propan-1-one] | < 5 | < 5 |
| O=C(COc1ccccc1)N1CCC[C@H](CNc2nc(-c3c[nH]c4ncc(Cl)cc34)ncc2F)C1 [Compound 94, (R)-1-(3-((2-(5-chloro-1H-pyrrolo[2,3-b]pyridin-3-yl)-5-fluoropyrimidin-4-ylamino)methyl)piperidin-1-yl)-2-phenoxyethanone] | < 5 | < 5 |
| O=C(C1CCCCC1)N1CCC[C@H](CNc2nc(-c3c[nH]c4ncc(Cl)cc34)ncc2F)C1 [Compound 95, (R)-(3-((2-(5-chloro-1H-pyrrolo[2,3-b]pyridin-3-yl)-5-fluoropyrimidin-4-ylamino)methyl)piperidin-1-yl)(cyclohexyl)methanone] | < 5 | < 5 |
| O=C(c1cccs1)N1CCC[C@H](CNc2nc(-c3c[nH]c4ncc(Cl)cc34)ncc2F)C1 [Compound 97, (R)-(3-((2-(5-chloro-1H-pyrrolo[2,3-b]pyridin-3-yl)-5-fluoropyrimidin-4-ylamino)methyl)piperidin-1-yl)(thiophen-2-yl)methanone] | < 5 | < 5 |
| O=C(Cc1ccc(F)cc1)N1CCC[C@H](CNc2nc(-c3c[nH]c4ncc(Cl)cc34)ncc2F)C1 [Compound 98, (R)-1-(3-((2-(5-chloro-1H-pyrrolo[2,3-b]pyridin-3-yl)-5-fluoropyrimidin-4-ylamino)methyl)piperidin-1-yl)-2-(4-fluorophenyl)ethanone] | < 5 | < 5 |
| O=C(C1CCCC1)N1CCC[C@H](CNc2nc(-c3c[nH]c4ncc(Cl)cc34)ncc2F)C1 [Compound 99, (R)-(3-((2-(5-chloro-1H-pyrrolo[2,3-b]pyridin-3-yl)-5-fluoropyrimidin-4-ylamino)methyl)piperidin-1-yl)(cyclopentyl)methanone] | < 5 | < 5 |
| O=C(CC1CCCC1)N1CCC[C@H](CNc2nc(-c3c[nH]c4ncc(Cl)cc34)ncc2F)C1 [Compound 100, (R)-1-(3-((2-(5-chloro-1H-pyrrolo[2,3-b]pyridin-3-yl)-5-fluoropyrimidin-4-ylamino)methyl)piperidin-1-yl)-2-cyclopentylethanone] | < 5 | < 5 |
| O=C(c1cnccn1)N1CCC[C@H](CNc2nc(-c3c[nH]c4ncc(Cl)cc34)ncc2F)C1 [Compound 101, (R)-(3-((2-(5-chloro-1H-pyrrolo[2,3-b]pyridin-3-yl)-5-fluoropyrimidin-4-ylamino)methyl)piperidin-1-yl)(pyrazin-2-yl)methanone] | < 5 | < 5 |
| O=C(c1ccco1)N1CCC[C@H](CNc2nc(-c3c[nH]c4ncc(Cl)cc34)ncc2F)C1 [Compound 102, (R)-(3-((2-(5-chloro-1H-pyrrolo[2,3-b]pyridin-3-yl)-5-fluoropyrimidin-4-ylamino)methyl)piperidin-1-yl)(furan-2-yl)methanone] | < 5 | < 5 |
| O=C(Cc1cccs1)N1CCC[C@H](CNc2nc(-c3c[nH]c4ncc(Cl)cc34)ncc2F)C1 [Compound 104, (R)-1-(3-((2-(5-chloro-1H-pyrrolo[2,3-b]pyridin-3-yl)-5-fluoropyrimidin-4-ylamino)methyl)piperidin-1-yl)-2-(thiophen-2-yl)ethanone] | < 5 | < 5 |
| CC(C)(C)C(=O)N1CCC[C@H](CNc2nc(-c3c[nH]c4ncc(Cl)cc34)ncc2F)C1 [Compound 105, (R)-1-(3-((2-(5-chloro-1H-pyrrolo[2,3-b]pyridin-3-yl)-5-fluoropyrimidin-4-ylamino)methyl)piperidin-1-yl)-2,2-dimethylpropan-1-one] | < 5 | < 5 |
| O=C(COCc1ccccc1)N1CCC[C@H](CNc2nc(-c3c[nH]c4ncc(Cl)cc34)ncc2F)C1 [Compound 106, (R)-2-(benzyloxy)-1-(3-((2-(5-chloro-1H-pyrrolo[2,3-b]pyridin-3-yl)-5-fluoropyrimidin-4-ylamino)methyl)piperidin-1-yl)ethanone] | < 5 | < 5 |
| O=C(c1cc2ccccc2s1)N1CCC[C@H](CNc2nc(-c3c[nH]c4ncc(Cl)cc34)ncc2F)C1 [Compound 107, (R)-benzo[b]thiophen-2-yl(3-((2-(5-chloro-1H-pyrrolo[2,3-b]pyridin-3-yl)-5-fluoropyrimidin-4-ylamino)methyl)piperidin-1-yl)methanone] | < 5 | < 5 |
| COc1ccc(C(=O)N2CCC[C@H](CNc3nc(-c4c[nH]c5ncc(Cl)cc45)ncc3F)C2)cc1OC [Compound 109, (R)-(3-((2-(5-chloro-1H-pyrrolo[2,3-b]pyridin-3-yl)-5-fluoropyrimidin-4-ylamino)methyl)piperidin-1-yl)(3,4-dimethoxyphenyl)methanone] | < 5 | < 5 |
| CC(=O)OCC(=O)N1CCC[C@H](CNc2nc(-c3c[nH]c4ncc(Cl)cc34)ncc2F)C1 [Compound 110, (R)-2-(3-((2-(5-chloro-1H-pyrrolo[2,3-b]pyridin-3-yl)-5-fluoropyrimidin-4-ylamino)methyl)piperidin-1-yl)-2-oxoethyl ethanoate] | < 5 | < 5 |
| CC(=O)N1CCC[C@H](CNc2nc(-c3c[nH]c4ncc(Cl)cc34)ncc2F)C1 [Compound 111, (R)-1-(3-((2-(5-chloro-1H-pyrrolo[2,3-b]pyridin-3-yl)-5-fluoropyrimidin-4-ylamino)methyl)piperidin-1-yl)ethanone] | < 5 | < 5 |
| CNc1ccccc1C(=O)N1CCC[C@H](CNc2nc(-c3c[nH]c4ncc(Cl)cc34)ncc2F)C1 [Compound 112, (R)-(3-((2-(5-chloro-1H-pyrrolo[2,3-b]pyridin-3-yl)-5-fluoropyrimidin-4-ylamino)methyl)piperidin-1-yl)(2-(methylamino)phenyl)methanone] | < 5 | < 5 |
| COc1ccccc1C(=O)N1CCC[C@H](CNc2nc(-c3c[nH]c4ncc(Cl)cc34)ncc2F)C1 [Compound 113, (R)-(3-((2-(5-chloro-1H-pyrrolo[2,3-b]pyridin-3-yl)-5-fluoropyrimidin-4-ylamino)methyl)piperidin-1-yl)(2-methoxyphenyl)methanone] | < 5 | < 5 |
| C=CCOC(=O)N1CCC[C@H](CNc2nc(-c3c[nH]c4ncc(Cl)cc34)ncc2F)C1 [Compound 119, (R)-allyl 3-((2-(5-chloro-1H-pyrrolo[2,3-b]pyridin-3-yl)-5-fluoropyrimidin-4-ylamino)methyl)piperidine-1-carboxylate] | < 5 | < 5 |
| Cc1cc(NC(=O)N2CCC[C@H](CNc3nc(-c4c[nH]c5ncc(Cl)cc45)ncc3F)C2)c(C(F)(F)F)o1 [Compound 120, (R)-3-((2-(5-chloro-1H-pyrrolo[2,3-b]pyridin-3-yl)-5-fluoropyrimidin-4-ylamino)methyl)-N-(5-methyl-2-(trifluoromethyl)furan-3-yl)piperidine-1-carboxamide] | < 5 | < 5 |
| C#CCOC(=O)N1CCC[C@H](CNc2nc(-c3c[nH]c4ncc(Cl)cc34)ncc2F)C1 [Compound 122, (R)-prop-2-ynyl 3-((2-(5-chloro-1H-pyrrolo[2,3-b]pyridin-3-yl)-5-fluoropyrimidin-4-ylamino)methyl)piperidine-1-carboxylate] | < 5 | < 5 |
| Fc1cnc(-c2c[nH]c3ncc(Cl)cc23)nc1NC[C@H]1CCCN(c2ncccn2)C1 [Compound 124, (R)-2-(5-chloro-1H-pyrrolo[2,3-b]pyridin-3-yl)-5-fluoro-N-((1-(pyrimidin-2-yl)piperidin-3-yl)methyl)pyrimidin-4-amine] | < 5 | < 5 |
